Laboratory results as given in patent US20260159499A1, “COMPOUND AS FAK INHIBITOR AND USE THEREOF” (WIGEN BIOMEDICINE TECHNOLOGY (SHANGHAI) CO., LTD., priority 2021, published 2026).
pIC50: −log10 of the molar value.

Tests used:
PC3 cells [1] = assay: PC3 cell proliferation, 3D activity detection; assay type: cell-based, human; conditions: PC3, 3D culture, 14 days, read-out: 3D IC50 against PC3 cells
Experimental: 3D activity detection: PC3 cells were seeded in a 96-well plate at 1200 cells/well, and 3D culture was performed. 14 days after the compound serially diluted was added, the growth of the cells was determined. The inhibition percentage and IC50 of the compound were calculated compared to the DMSO control group.

FAK recombinant protein = FAK recombinant protein (Homo sapiens, UniProt Q05397); assay: Inhibitory activity against FAK enzyme; assay type: biochemical; conditions: TK substrate, ATP
Experimental: The compound serially diluted with DMSO and a FAK recombinant protein were mixed, and the mixture was left to stand at room temperature for 10 min. A biotin-labeled TK substrate (TK) and ATP were then added. […] After the mixture was incubated at room temperature for 1 h, the fluorescence intensity at 615 nm and 665 nm was measured. The ratio of the fluorescence intensity at 665 nm and 615 nm was calculated. The inhibition percentages and IC50 of the compounds were calculated compared to the DMSO control group.

PC3 cells [2] = assay: PC3 cell proliferation, 2D activity detection; assay type: cell-based, human; conditions: PC3, 2D, 72 h, class symbol, read-out: 2D IC50 against PC3 cells
Experimental: 2D activity detection: 1200 PC3 cells were seeded in a 96-well plate. After overnight adherence culture, the compound serially diluted was added. 72 h after addition, Cell Titer-Lumi (Beyotime C0068XL) was added to measure the ATP content in the cells. The growth of the cells was evaluated, and IC50 of the compounds against cell growth was calculated.

[3] = Homo sapiens, PC-3, 336 h, class symbol

FAK recombinant protein, sequence (Q05397 whole entry, species assumed): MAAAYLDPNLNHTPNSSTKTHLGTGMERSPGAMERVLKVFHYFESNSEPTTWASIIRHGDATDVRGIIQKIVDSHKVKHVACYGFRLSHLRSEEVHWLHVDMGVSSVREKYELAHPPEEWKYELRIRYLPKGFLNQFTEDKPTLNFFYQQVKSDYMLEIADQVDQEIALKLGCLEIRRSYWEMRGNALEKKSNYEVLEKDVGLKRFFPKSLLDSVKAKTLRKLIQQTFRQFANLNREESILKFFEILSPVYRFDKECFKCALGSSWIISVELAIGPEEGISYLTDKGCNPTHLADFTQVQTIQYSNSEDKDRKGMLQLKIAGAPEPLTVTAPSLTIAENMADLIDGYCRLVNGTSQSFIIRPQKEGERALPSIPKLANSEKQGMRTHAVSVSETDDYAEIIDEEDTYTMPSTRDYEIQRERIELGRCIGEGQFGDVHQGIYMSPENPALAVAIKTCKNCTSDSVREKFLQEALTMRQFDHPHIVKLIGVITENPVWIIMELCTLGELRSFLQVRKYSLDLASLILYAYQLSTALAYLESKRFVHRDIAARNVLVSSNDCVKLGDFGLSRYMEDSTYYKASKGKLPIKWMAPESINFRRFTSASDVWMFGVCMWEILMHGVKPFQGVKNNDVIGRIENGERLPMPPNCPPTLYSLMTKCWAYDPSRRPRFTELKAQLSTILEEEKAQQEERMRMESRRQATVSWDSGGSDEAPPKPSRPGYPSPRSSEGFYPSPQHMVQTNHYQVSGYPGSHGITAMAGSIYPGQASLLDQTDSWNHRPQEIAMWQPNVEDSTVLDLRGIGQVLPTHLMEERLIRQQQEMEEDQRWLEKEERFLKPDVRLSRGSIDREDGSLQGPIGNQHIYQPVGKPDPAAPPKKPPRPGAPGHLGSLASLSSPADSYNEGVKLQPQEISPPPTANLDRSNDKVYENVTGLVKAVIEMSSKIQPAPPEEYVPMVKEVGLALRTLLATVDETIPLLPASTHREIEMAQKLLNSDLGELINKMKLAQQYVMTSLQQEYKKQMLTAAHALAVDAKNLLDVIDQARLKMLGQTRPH

Structure (SMILES) | pIC50 (PC3 cells [1]; [3]) | pIC50 (FAK recombinant protein) | pIC50 (PC3 cells [2]; Homo sapiens, PC-3) | pIC50 (PC3 cells [1]; Homo sapiens, PC-3, 336 h, numeric (mean where marked *)) | pIC50 (PC3 cells [1]; class symbol) | pIC50 (PC3 cells [2])
CNC(=O)c1ccccc1Oc1nc(Nc2cc(F)c(C(=O)NC3CC4(CCN(C)CC4)C3)cc2OC)ncc1C(F)(F)F [Compound 1, 2-fluoro-5-methoxy-N-(7-methyl-7-azaspiro[3.5]nonan-2-yl)-4-((4-(2-(methylcarbamoyl)phenoxy)-5-(trifluoromethyl)pyrimidin-2-yl)amino)benzamide] | 7.30 to 8.30 | > 8.00 | < 5.70 | – | – | –
CNC(=O)c1ccccc1Oc1nc(Nc2cc(F)c(C(=O)NC3CCC4(CC3)CN(C)C4)cc2OC)ncc1C(F)(F)F [Compound 2] | 7.30 to 8.30 | > 8.00 | < 5.70 | – | – | –
CNC(=O)c1ccccc1Oc1nc(Nc2cc(F)c(C(=O)NC3CC4(CCN(C)CC4)CO3)cc2OC)ncc1C(F)(F)F (stereo not drawn) [Compound 3] | 7.30 to 8.30 | > 8.00 | < 5.70 | – | – | –
CNC(=O)c1ccccc1Oc1nc(Nc2cc(F)c(C(=O)NC3CC4(CCN(C)C4)CO3)cc2OC)ncc1C(F)(F)F (stereo not drawn) [Compound 5] | 7.30 to 8.30 | > 8.00 | < 5.70 | – | – | –
CNC(=O)c1ccccc1Oc1nc(Nc2cc(F)c(C(=O)NC3CCC4(CC3)CCN(C)CC4)cc2OC)ncc1C(F)(F)F [Compound 9] | 7.30 to 8.30 | 7.30 to 8.00 | < 5.70 | – | – | –
COc1cc(C(=O)NC2CC3(CCN(C)CC3)C2)c(F)cc1Nc1ncc(C(F)(F)F)c(Oc2ccccc2N(C)S(C)(=O)=O)n1 [Compound 10] | > 8.30 | > 8.00 | < 5.70 | – | – | –
COc1cc(C(=O)NC2CCC3(CCN(C)CC3)C2)c(F)cc1Nc1ncc(C(F)(F)F)c(Oc2ccccc2N(C)S(C)(=O)=O)n1 (stereo not drawn) [Compound 11] | 7.30 to 8.30 | > 8.00 | < 5.70 | – | – | –
COc1cc(C(=O)NC2CC3(CCN(C)CC3)CO2)c(F)cc1Nc1ncc(C(F)(F)F)c(Oc2ccccc2N(C)S(C)(=O)=O)n1 (stereo not drawn) [Compound 12] | > 8.30 | > 8.00 | < 5.70 | – | – | –
COc1cc(C(=O)NC2CCC3(CCN(C)C3)C2)c(F)cc1Nc1ncc(C(F)(F)F)c(Oc2ccccc2N(C)S(C)(=O)=O)n1 (stereo not drawn) [Compound 13] | 7.30 to 8.30 | > 8.00 | < 5.70 | – | – | –
COc1cc(C(=O)NC2CC3(CCN(C)C3)CO2)c(F)cc1Nc1ncc(C(F)(F)F)c(Oc2ccccc2N(C)S(C)(=O)=O)n1 (stereo not drawn) [Compound 14] | > 8.30 | > 8.00 | < 5.70 | – | – | –
COc1cc(C(=O)NC2COC3(CCN(C)C3)C2)c(F)cc1Nc1ncc(C(F)(F)F)c(Oc2ccccc2N(C)S(C)(=O)=O)n1 (stereo not drawn) [Compound 15] | > 8.30 | > 8.00 | < 5.70 | – | – | –
COc1cc(C(=O)NC2CCC3(CC2)CCN(C)CC3)c(F)cc1Nc1ncc(C(F)(F)F)c(Oc2ccccc2N(C)S(C)(=O)=O)n1 [Compound 16] | 7.30 to 8.30 | 7.30 to 8.00 | < 5.70 | – | – | –
COc1cc(C(=O)NC2CCC3(CC2)CN(C)C3)c(F)cc1Nc1ncc(C(F)(F)F)c(Oc2ccccc2N(C)S(C)(=O)=O)n1 [Compound 17] | 7.30 to 8.30 | > 8.00 | < 5.70 | – | – | –
COc1cc(C(=O)NC2CCC3(CC2)CCN3C)c(F)cc1Nc1ncc(C(F)(F)F)c(Oc2ccccc2N(C)S(C)(=O)=O)n1 (stereo not drawn) [Compound 18] | 7.30 to 8.30 | > 8.00 | < 5.70 | – | – | –
COc1cc(C(=O)NC2CCC3(CC2)CCN3C)c(F)cc1Nc1ncc(C(F)(F)F)c(Oc2cccc3c2C(=O)N(C)C3)n1 (stereo not drawn) [Compound 22] | > 8.30 | > 8.00 | < 5.70 | – | – | –
COc1cc(C(=O)NC2COC3(CCN(C)CC3)C2)c(F)cc1Nc1ncc(C(F)(F)F)c(Oc2cccc3c2C(=O)N(C)C3)n1 (stereo not drawn) [Compound 23] | – | > 8.00 | < 5.70 | 8.43 | – | –
COc1cc(C(=O)NC2CCC3(CCN(C)CC3)C2)c(F)cc1Nc1ncc(C(F)(F)F)c(Oc2cccc3c2C(=O)N(C)C3)n1 (stereo not drawn) [Compound 24] | 7.30 to 8.30 | > 8.00 | < 5.70 | – | – | –

Structure (SMILES) | pIC50 (PC3 cells [1]; [3]) | pIC50 (FAK recombinant protein) | pIC50 (PC3 cells [2]; Homo sapiens, PC-3) | pIC50 (PC3 cells [1]; Homo sapiens, PC-3, 336 h, numeric (mean where marked *)) | pIC50 (PC3 cells [1]; class symbol) | pIC50 (PC3 cells [2])
COc1cc(C(=O)NC2CCC3(CC2)CCN(C)C3)c(F)cc1Nc1ncc(C(F)(F)F)c(Oc2cccc3c2C(=O)N(C)C3)n1 (stereo not drawn) [Compound 25] | > 8.30 | > 8.00 | < 5.70 | – | – | –
COc1cc(C(=O)NC2CCC3(CC2)CCN(C)CC3)c(F)cc1Nc1ncc(C(F)(F)F)c(Oc2cccc3c2C(=O)N(C)C3)n1 [Compound 26] | 7.30 to 8.30 | > 8.00 | < 5.70 | – | – | –
COc1cc(C(=O)NC2CCC3(CCN(C)C3)C2)c(F)cc1Nc1ncc(C(F)(F)F)c(Oc2cccc3c2C(=O)N(C)C3)n1 (stereo not drawn) [Compound 27] | 7.30 to 8.30 | > 8.00 | < 5.70 | – | – | –
COc1cc(C(=O)NC2CCN3CCOC3C2)c(F)cc1Nc1ncc(C(F)(F)F)c(Oc2cccc3c2C(=O)N(C)C3)n1 (stereo not drawn) [Compound 30] | 7.30 to 8.30 | > 8.00 | < 5.70 | – | – | –
COc1cc(C(=O)NC2CCN3CCN=C3C2)c(F)cc1Nc1ncc(C(F)(F)F)c(Oc2cccc3c2C(=O)N(C)C3)n1 (stereo not drawn) [Compound 31] | 7.30 to 8.30 | > 8.00 | < 5.70 | – | – | –
COc1cc(C(=O)NC2CCn3ccnc3C2)c(F)cc1Nc1ncc(C(F)(F)F)c(Oc2cccc3c2C(=O)N(C)C3)n1 (stereo not drawn) [Compound 32] | 7.30 to 8.30 | > 8.00 | < 5.70 | – | – | –
COc1cc(C(=O)NC2CCn3cnnc3C2)c(F)cc1Nc1ncc(C(F)(F)F)c(Oc2cccc3c2C(=O)N(C)C3)n1 (stereo not drawn) [Compound 33] | 7.30 to 8.30 | > 8.00 | < 5.70 | – | – | –
COc1cc(C(=O)N2CCC3(CCN(C)CC3)CC2)c(F)cc1Nc1ncc(C(F)(F)F)c(Oc2cccc3c2C(=O)N(C)C3)n1 [Compound 35] | < 7.30 | < 7.30 | < 5.70 | – | – | –
COc1cc(C(=O)N2CCC3(CCN(C)C3)C2)c(F)cc1Nc1ncc(C(F)(F)F)c(Oc2cccc3c2C(=O)N(C)C3)n1 (stereo not drawn) [Compound 36] | 7.30 to 8.30 | > 8.00 | < 5.70 | – | – | –
COc1cc(C(=O)N2CCC3(CCN(C)C3)C2)c(F)cc1Nc1ncc(C(F)(F)F)c(Oc2cccc3c2C(=O)N(C)C3)n1 (stereo not drawn) [Compound 37] | – | > 8.00 | – | – | 7.30 to 8.30 | < 5.70
COc1cc(C(=O)N2CCC23CCN(C)CC3)c(F)cc1Nc1ncc(C(F)(F)F)c(Oc2cccc3c2C(=O)N(C)C3)n1 [Compound 38] | 7.30 to 8.30 | 7.30 to 8.00 | < 5.70 | – | – | –
COc1cc(C(=O)N2CCC3(CCN(C)CC3)C2)c(F)cc1Nc1ncc(C(F)(F)F)c(Oc2cccc3c2C(=O)N(C)C3)n1 [Compound 39] | 7.30 to 8.30 | > 8.00 | < 5.70 | – | – | –
COc1cc(C(=O)N2CCC3(CCCN(C)C3)C2)c(F)cc1Nc1ncc(C(F)(F)F)c(Oc2cccc3c2C(=O)N(C)C3)n1 (stereo not drawn) [Compound 40] | 7.30 to 8.30 | > 8.00 | < 5.70 | – | – | –
COc1cc(C(=O)NC2CC3(CCNCC3)C2)c(F)cc1Nc1ncc(C(F)(F)F)c(Oc2cccc3c2C(=O)N(C)C3)n1 [Compound 41] | 7.30 to 8.30 | 7.30 to 8.00 | < 5.70 | – | – | –
CCN1CCC2(CC1)CC(NC(=O)c1cc(OC)c(Nc3ncc(C(F)(F)F)c(Oc4cccc5c4C(=O)N(C)C5)n3)cc1F)C2 [Compound 42] | > 8.30 | > 8.00 | < 5.70 | – | – | –
COc1cc(C(=O)NC2CC3(CCN(C)CC3)C2)c(Cl)cc1Nc1ncc(C(F)(F)F)c(Oc2cccc3c2C(=O)N(C)C3)n1 [Compound 43] | > 8.30 | > 8.00 | < 5.70 | – | – | –
COc1cc(C(=O)NC2CCC3(CC2)CN(C)C3)c(Cl)cc1Nc1ncc(C(F)(F)F)c(Oc2cccc3c2C(=O)N(C)C3)n1 [Compound 44] | 7.30 to 8.30 | > 8.00 | < 5.70 | – | – | –
